# Earlier results in patent publication US7674824B2, “Stable oxaliplatin formulation” (Fresenius Kabi Oncology Limited, priority 2006, dated 2010).
# Conditions: 0.9% sodium chloride solution
compound,measurement,value
O=C1[O][Pt]2([NH][C@@H]3CCCC[C@H]3[NH]2)[O]C1=O [oxaliplatin],Stability after reconstitution in chloride-containing solution (in words),rapidly decomposing
